Counter-ions that a name gives are not always drawn.
Columns and labels:
[1] = administered orally; cited from earlier work
[2] = Adsorption of naltrexone hydrochloride onto activated charcoal from 0.1N HCl, HPLC of liquid phase; format: physicochemical; settings: 37° C.; for Naltrexone adsorbed from solution / Naltrexone adsorbed onto the activated charcoal / Naltrexone content in fluid / Naltrexone content in fluid, HPLC area %: 0.1N aqueous HCl
Method: Example 1 describes a non-limiting method for making an adsorbent/adverse agent. The adsorbent used was DARCO activated charcoal obtained from EM Science, an affiliate of Merck KGaA of Darmstadt, Germany. The DARCO activated charcoal used was 20 to 40 mesh black granular charcoal which passed the USP absorptive power test (see The United States Pharmacopeia, 26:404 (2003)) for activated charcoal.
Adsorption of naltrexone: The activated charcoal (5.02 g) was added to a solution of naltrexone hydrochloride (504.26 mg) (obtained from Mallinkrodt, St. Louis, Mo.) in 0.1N HCI (900 mL). The resultant mixture was stirred at 100 rpm for 120 h at 37° C., and the adsorption (or uptake) of naltrexone hydrochloride into the activated charcoal was monitored by measuring the decrease in concentration of the naltrexone hydrochloride in the liquid phase using high performance liquid chromatography (HPLC). The data was used to calculate the amount of naltrexone adsorbed onto the activated charcoal, e.g., after 2 h, as follows: […]

[3] = Dynamic desorption of the Charcoal/Naltrexone by washing with 0.1N HCl; format: physicochemical; settings: 1 L aliquots of 0.1N HCl, 25° C.
Method: IN HCI. The concentration of naltrexone hydrochloride in the wash filtrates was measured using HPLC as described above.

C[C@H]1[C@H]2Cc3ccc(O)cc3[C@]1(C)CCN2CC1CC1 [cyclazocine]
duration of action [1]: ~24 h

O=C1CC[C@@]2(O)[C@H]3Cc4ccc(O)c5c4[C@@]2(CCN3CC2CC2)[C@H]1O5 [naltrexone hydrochloride]
Naltrexone adsorbed from solution ([2]; time 0 min): 0.00% | Naltrexone adsorbed onto the activated charcoal ([2]; time 0 min): 0.00 mg | Naltrexone content in fluid ([2]; time 0 min): 504.26 mg | Naltrexone content in fluid, HPLC area % ([2]; time 0 min): 4.836 HPLC area % | Naltrexone adsorbed from solution ([2]; time 10 min): 23.34% | Naltrexone adsorbed onto the activated charcoal ([2]; time 10 min): 117.69 mg | Naltrexone content in fluid ([2]; time 10 min): 386.57 mg | Naltrexone content in fluid, HPLC area % ([2]; time 10 min): 3.707 HPLC area % | Naltrexone adsorbed from solution ([2]; time 20 min): 32.01% | Naltrexone adsorbed onto the activated charcoal ([2]; time 20 min): 161.39 mg | Naltrexone content in fluid ([2]; time 20 min): 342.87 mg | Naltrexone content in fluid, HPLC area % ([2]; time 20 min): 3.288 HPLC area % | Naltrexone adsorbed from solution ([2]; time 30 min): 37.62% | Naltrexone adsorbed onto the activated charcoal ([2]; time 30 min): 189.69 mg | Naltrexone content in fluid ([2]; time 30 min): 314.57 mg | Naltrexone content in fluid, HPLC area % ([2]; time 30 min): 3.017 HPLC area % | Naltrexone adsorbed from solution ([2]; time 40 min): 41.36% | Naltrexone adsorbed onto the activated charcoal ([2]; time 40 min): 208.55 mg | Naltrexone content in fluid ([2]; time 40 min): 295.71 mg | Naltrexone content in fluid, HPLC area % ([2]; time 40 min): 2.836 HPLC area % | Naltrexone adsorbed from solution ([2]; time 50 min): 45.37% | Naltrexone adsorbed onto the activated charcoal ([2]; time 50 min): 228.81 mg | Naltrexone content in fluid ([2]; time 50 min): 275.45 mg | Naltrexone content in fluid, HPLC area % ([2]; time 50 min): 2.642 HPLC area % | Naltrexone adsorbed from solution ([2]; time 60 min): 47.75% | Naltrexone adsorbed onto the activated charcoal ([2]; time 60 min): 240.76 mg | Naltrexone content in fluid ([2]; time 60 min): 263.50 mg | Naltrexone content in fluid, HPLC area % ([2]; time 60 min): 2.527 HPLC area % | Naltrexone adsorbed from solution ([2]; time 70 min): 49.10% | Naltrexone adsorbed onto the activated charcoal ([2]; time 70 min): 247.60 mg | Naltrexone content in fluid ([2]; time 70 min): 256.66 mg | Naltrexone content in fluid, HPLC area % ([2]; time 70 min): 2.461 HPLC area % | Naltrexone adsorbed from solution ([2]; time 80 min): 50.76% | Naltrexone adsorbed onto the activated charcoal ([2]; time 80 min): 255.97 mg | Naltrexone content in fluid ([2]; time 80 min): 248.29 mg | Naltrexone content in fluid, HPLC area % ([2]; time 80 min): 2.381 HPLC area % | Naltrexone adsorbed from solution ([2]; time 90 min): 52.98% | Naltrexone adsorbed onto the activated charcoal ([2]; time 90 min): 267.16 mg | Naltrexone content in fluid ([2]; time 90 min): 237.10 mg | Naltrexone content in fluid, HPLC area % ([2]; time 90 min): 2.274 HPLC area % | Naltrexone adsorbed from solution ([2]; time 100 min): 54.38% | Naltrexone adsorbed onto the activated charcoal ([2]; time 100 min): 274.20 mg | Naltrexone content in fluid ([2]; time 100 min): 230.06 mg | Naltrexone content in fluid, HPLC area % ([2]; time 100 min): 2.206 HPLC area % | Naltrexone adsorbed from solution ([2]; time 120 min): 55.36% | Naltrexone adsorbed onto the activated charcoal ([2]; time 120 min): 279.16 mg | Naltrexone content in fluid ([2]; time 120 min): 225.10 mg | Naltrexone content in fluid, HPLC area % ([2]; time 120 min): 2.159 HPLC area % | time within which substantially all of the naltrexone adsorption was completed ([2]; onto activated charcoal, 0.1N HCl): ≤ 1.5 h | wash steps during which the majority of the desorption of naltrexone hydrochloride occurred [3]: ≤ 18 wash steps

O=C1CC[C@@]2(O)[C@H]3Cc4ccc(O)c5c4[C@@]2(CCN3CC2CC2)[C@H]1O5 [naltrexone]
duration of action [1]: ~24 h

Reference: patent US9795681B2, “Tamper resistant dosage form comprising an adsorbent and an adverse agent” (Purdue Pharma L.P., priority 2004, dated 2017)
